The record followed here is patent US20220142948A1, “COMPOSITIONS AND METHODS FOR MODULATING METABOLIC REGULATORS OF T CELL PATHOGENICITY” (The Broad Institute, Inc., priority 2019, published 2022).

Entries after “also recorded” stand apart in the source; their conditions may differ.

The test system of assay [1] is experimental autoimmune encephalomyelitis (EAE). In words: Active EAE (MOG35-55/CFA immunization) with DFMO in drinking water. The format is in vivo, mouse. As to the method: Experimental Autoimmune Encephalomyelitis (EAE). […] Equivalent of 40 μg MOG peptide was injected per mouse subcutaneously followed by pertussis toxin injection intravenously on day 0 and day 2 of immunization. Mice were treated with 0.5% DFMO in drinking water for 10 days as indicated. DFMO was replenished every third day.
Experimental Autoimmune Encephalomyelitis (EAE). […] Equivalent of 40 μg MOG peptide was injected per mouse subcutaneously followed by pertussis toxin injection intravenously on day 0 and day 2 of immunization. Mice were monitored and assigned grades for clinical signs of EAE using the following scoring system: 0, healthy; 1, limp tail; 2, impaired righting reflex or ataxic gait; 3, hind limb paralysis; 4, total limb paralysis; 5, moribund or death. Mice with a score of >4 were euthanized. If mice died during the course of the experiment, their clinical score of 5 was included in the analysis for the remainder of the experiment.

The test system of assay [2] is Th17n, Th17p and iTreg cells. Put plainly: Population ATAC-seq chromatin accessibility. The format is cell-based, mouse.
From the text: ATAC-seq. For population ATAC-seq, in vitro differentiated T-cells were sorted for live cells and froze down in Bambanker freezing media (Thermo Fisher Scientific).
Alignment of ATAC-Seq and Peak Calling. All ATAC-Seq reads were trimmed using Trimmomatic to remove primer and low-quality bases. Reads <36 bp were dropped. Reads were then passed to FastQC [www.bioinformatics.babraham.ac.uk/projects/fastqc/] to check the quality of the trimmed reads. The paired-end reads were then aligned to the mm10 reference genome using bowtie2 [29], allowing maximum insert sizes of 2000 bp, with the “—no-mixed” and “—no-discordant” parameters added. Reads with a mapping quality (MAPA) below 30 were removed. Duplicates were removed with PicardTools, and the reads mapping to the blacklist regions and mitochondrial DNA were also removed. Reads mapping to the positive strand were moved +4 bp, and reads mapping to the negative strand were moved −5 bp following the procedure outlined in [30] to account for the binding of the Tn5 transposase.
(§1) Peaks were called using macs2 on the aligned fragments with a qvalue cutoff of 0.001 and overlapping peaks among replicates were merged.
Tests of Differential Accessibility in ChARs. Differential accessibility was assessed using DESeq2 [32] on with a matrix of peaks by samples replacing the genes by samples matrix. Counts of Tn5 cuts were used instead of gene expression values.
ATAC-seq. For population ATAC-seq, in vitro differentiated T-cells were sorted for live cells and stored in Bambanker freezing media (Thermo Fisher Scientific) at −80° C. until further processing. Prior to library preparation, cells were thawed at 37° C. and washed with PBS. For ATAC-seq, cell pellets were lysed and tagmented in 1×TD Buffer, 0.2 ul TDE1 (Illumina), 0.01% digitonin, and 0.3×PBS in 40 ul reaction volume following the protocol described in [49]. Transposition reactions were incubated at 37° C. for 30 min at 300 rpm. The DNA was purified from the reaction using a MinElute PCR purification kit (QIAGEN). The whole resulting product was then PCR-amplified using indexed primers with NEBNext High-Fidelity 2X PCR Master Mix (NEB). First, Applicants performed 5 cycles of pre-amplification. Applicants sampled 10% of the pre-amplification reaction for SYBR Green quantitative PCR to assess the number of additional cycles needed for final amplification. After purifying the final library with the MinElute PCR purification kit (QIAGEN), the library was quantified for sequencing using qPCR and a Qubit dsDNA HS Assay kit (Invitrogen). Libraries were sequenced on an Illumina NextSeq 550 system with paired-end reads of 37 base pairs in length.
Alignment of ATAC-Seq and Peak Calling. All ATAC-Seq reads were trimmed using Trimmomatic to remove primer and low-quality bases. Reads <36 bp were dropped. Reads were then passed to FastQC [www.bioinformatics.babraham.ac.uk/projects/fastqc/] to check the quality of the trimmed reads. The paired-end reads were then aligned to the mm10 reference genome using bowtie2 [51], allowing maximum insert sizes of 2000 bp, with the “—no-mixed” and “—no-discordant” parameters added. Reads with a mapping quality (MAPA) below 30 were removed. Duplicates were removed with PicardTools, and the reads mapping to the blacklist regions and mitochondrial DNA were also removed. Reads mapping to the positive strand were moved +4 bp, and reads mapping to the negative strand were moved −5 bp following the procedure outlined in [52] to account for the binding of the Tn5 transposase.
as §1
Tests of Differential Accessibility. Differential accessibility was assessed using DESeq2 [54] on with a matrix of peaks (merging all samples) by samples. […]

Assay [3] relates to PGAM in Th17n and Th17p cells. In words: 13C-glucose carbon tracing by LC/MS. The format is cell-based, mouse. Here is the method:
For carbon tracing experiments Th17 cells were differentiated as described. Thereafter, cells were washed and cultured in media supplemented with 8 mM [U-13C]-glucose for 15 min or 3 hrs.
Let |Ci| be the number of carbon atoms in metabolite i, and let xc,i,j be the measured signal of metabolite i in sample j (subsequent to all normalization and QC procedures) in which there are exactly c 13C atoms. The comparisons of carbon flows are based on the statistic yi,j=(Σt=0^|C^i^|t·xt,i,j)/(|Ci|·Σt=0^|C^i^|xt,i,j)
which measures the 13C ratio of the total carbon contents for metabolite i in sample j.
To find metabolites with differential 13C relative abundance, Applicants computed the ratio yi,j of 13C out of the total carbon contents for each metabolite i in sample j. Let |Ci| be the number of carbon atoms in metabolite i, and let xc,i,j be the measured signal of metabolite i in sample j (subsequent to all normalization and QC procedures) in which there are exactly c 13C atoms.

As to `NCCC[C@](N)(C(=O)O)C(F)F` [DFMO, 2-(difluoromethyl)ornithine], the “EAE clinical score, onset and severity” value in assay [1] (0.5% DFMO in drinking water for 10 days) is “effective in reducing EAE; also recorded: decreases the EAE score; also recorded: delays EAE onset; also recorded: significantly delayed the onset and severity of EAE; also recorded: significant impact in curtailing EAE”. Besides, in assay [1] (lymphocytes isolated from CNS), the “Foxp3+CD4+ T cells (Tregs)” value is “promotes Tregs; also recorded: increased frequency” and the “frequency of cytokine producing cells” value is recorded as “no difference”. Further, in assay [2], the “ATACseq peaks in the Il23r region” value is reported as “no significant difference”, the “accessibility in Th17 specific regions” value is “specifically reduced accessibility; also recorded: reduces accessibility; also recorded: more restricted landscape; also recorded: less accessibility”, the “accessibility in Treg specific regions” value was “more accessible landscape; also recorded: more accessibility” and the “peaks near regulatory elements for Foxp3 such as CNS2” value is given as “no differentially expressed peaks”. The “peaks in the promoter and intergenic regions of Il17a-Il17f” value in assay [2] (Rorgt binding site) was “significantly restricted peaks”. Besides, in assay [2] (Th17n cells), the “accessibility near potential binding sites of JMJD3 and POU-domain TFs” value was “increased accessibility”. For the same compound, in assay [2] (Th cells analyzed), the accessible peaks overall entry is on record as “alters chromatin accessibility; also recorded: significant changes in accessible peaks; also recorded: considerable changes in accessible peaks”. Besides, the “motif enrichment in iTreg-specific accessible regions” value in assay [2] (both Th17n and Th17p cells) is “significant enrichment of BATF and cMAF motifs”.

In the case of epigallocatechin-3-gallate [EGCG], the “13C contents of 2PG” value in assay [3] (Th17n and Th17p) is listed as “decrease; also recorded: disturbs”. Further, in assay [3] (Th17p), the “13C ratio of 2PG after EGCG” value came to 33%.
